Data reported in patent US11008346B2, “Beta-lactamase inhibitors” (priority 2014, dated 2021).

What was measured:
SHV-5 β-lactamase = target: T1, SHV-5 β-lactamase (Klebsiella pneumoniae, UniProt P0A3M1); assay: β-lactamase enzyme inhibition, SHV-5; type: biochemical
T1 construct: made in house; host or cells: E. coli BL21(DE3)
Method: (§1) For SHV-5, Kpc-2, p99AmpC and OXA-1 β-lactamases, E. coli BL21(DE3) bacterial cells carrying expression plasmids (expressed as native untagged proteins) for the individual β-lactamases were grown in 1 L of Superbroth (Teknova Inc. Hollister, Calif.) supplemented with 100 μg/ml kanamycin selection and 1×5052 (0.5% glycerol, 0.05% glucose and 0.2% α-lactose) at 35° C. for 18-20 hours. Cells were harvested by centrifugation (4,000×g, 4° C., 20 min), resuspended in 50 ml of 10 mM HEPES pH 7.5 ( 1/20 of the initial volume). The cells were lysed by sonication (5 pulses of 45 seconds) at 45 W on ice. The lysates were clarified by centrifugation at 10,000×g for 40 minutes at 4° C. Samples were diluted 5-fold in 50 mM sodium acetate pH 5.0, stored overnight at 4° C., after which they were centrifuged at 10,000×g for 30 minutes to clarify, and filtered through 0.45 μm filters. The samples were loaded onto a 5 ml Capto S sepharose cation exchange column (GE Healthcare) pre-equilibrated with 50 mM sodium acetate pH 5.0. The column was washed with 5 column volumes of 50 mM sodium acetate pH 5.0 to wash out unbound protein and a linear gradient of NaCl (0 to 500 mM) was used to elute the protein (over 16 CV) from the column. Fractions were assayed for […] activity using Centa (Calbiochem, Gibbstown, N.J.) or Nitrocefin (EMD Millipore chemicals, Darmstadt, Germany) as a reporter β-lactamase substrate for activity in the isolated fractions. Active fractions were pooled, concentrated and further purified by gel filtration chromatography on a Superdex 75 prep grade gel filtration column (GE Healthcare, Piscataway, N.J.) pre-equilibrated in 50 mM Hepes pH 7.5, 150 mM NaCl. Active fractions were pooled, concentrated, and quantitated by BCA protein determination (Thermo Scientific, Rockford, Ill.), dialyzed into PBS and frozen at −80° C. in 20% glycerol until use.
(§2) An equal volume of diluted enzyme stock was added, and the plates were incubated at 37° C. for 15 min. Nitrocefin was used as substrate for p99 AmpC, VIM-2 and OXA-1 and dispensed into each well at a final concentration of 100 μM. Absorbance at 486 nm was immediately monitored for 10 min using a Biotek Powerwave XS2 microplate spectrophotometer using the GEN5 software package (Biotek Instruments, Winooski Vt.). In an analogous fashion, imipenem was used as substrate for KPC-2 and Cefotaxime was used for SHV-5, while changes in absorbance upon hydrolysis of the β-lactam ring were monitored at 300 nm and 260 nm respectively in UV-transparent 96-well microtiter assay plates. Maximum rates of hydrolysis were compared to those in control wells (without inhibitors), and percentages of enzyme inhibition were calculated for each concentration of inhibitor. The concentration of inhibitor needed to reduce the initial rate of hydrolysis of substrate by 50% (IC50) was calculated as the residual activity of β-lactamase at 486 nm using GraFit version 7 kinetics software package (Erithacus Software, Surrey, UK).
(§3) Using the methodology described above, examples of the current invention were evaluated for their ability to inhibit β-lactamase enzymes from all four Ambler classifications (A through D). […] NT=Not tested.

KPC-2 β-lactamase = target: T2, KPC-2 β-lactamase (Klebsiella pneumoniae, UniProt Q9F663); assay: β-lactamase enzyme inhibition, KPC-2; type: biochemical; settings: imipenem substrate, 300 nm; 15 min at 37° C. preincubation; read-out: IC50 KPC-2 (Class A)
T2 construct: made in house; host or cells: E. coli BL21(DE3)
T2 sequence (Q9F663 25-293, looked up): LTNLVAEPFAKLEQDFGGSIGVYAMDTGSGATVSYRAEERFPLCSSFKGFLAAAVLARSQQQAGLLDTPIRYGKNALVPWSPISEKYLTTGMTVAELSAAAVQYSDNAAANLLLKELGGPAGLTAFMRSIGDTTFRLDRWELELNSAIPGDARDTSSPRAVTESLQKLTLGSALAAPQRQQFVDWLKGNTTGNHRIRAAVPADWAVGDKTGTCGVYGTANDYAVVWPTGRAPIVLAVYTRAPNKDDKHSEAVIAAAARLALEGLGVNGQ
Method: as §1, §2, §3

[1] = target: T3, VIM-2 metallo β-lactamase (Pseudomonas aeruginosa, UniProt Q9K2N0); assay: β-lactamase enzyme inhibition, VIM-2; type: biochemical; settings: Nitrocefin 100 μM, 486 nm; 15 min at 37° C. preincubation; read-out: IC50 VIM-2 (Class B)
T3 construct: made in house; host or cells: E. coli BL21(DE3)
Method: For VIM-2 metallo β-lactamase, the procedure was identical with the following exceptions, first the protein was not pH adjusted to pH 5 with 50 mM sodium acetate. Second, the chromatography step was changed to a 5 ml Q sepharose anion exchange column pre-equilibrated with 50 mM Hepes pH 7.5, and elution of the protein was achieved by a linear gradient of NaCl (0-600 mM). Finally, the VIM-2 purification required a second run (3rd step) on the Q sepharose anion exchange column to achieve acceptable purity (>90%).
as §2, §3

p99 AmpC β-lactamase = target: T4, p99 AmpC β-lactamase (Enterobacter cloacae, UniProt P05364); assay: β-lactamase enzyme inhibition, p99 AmpC; type: biochemical
T4 construct: made in house; host or cells: E. coli BL21(DE3)
T4 sequence (P05364 21-381): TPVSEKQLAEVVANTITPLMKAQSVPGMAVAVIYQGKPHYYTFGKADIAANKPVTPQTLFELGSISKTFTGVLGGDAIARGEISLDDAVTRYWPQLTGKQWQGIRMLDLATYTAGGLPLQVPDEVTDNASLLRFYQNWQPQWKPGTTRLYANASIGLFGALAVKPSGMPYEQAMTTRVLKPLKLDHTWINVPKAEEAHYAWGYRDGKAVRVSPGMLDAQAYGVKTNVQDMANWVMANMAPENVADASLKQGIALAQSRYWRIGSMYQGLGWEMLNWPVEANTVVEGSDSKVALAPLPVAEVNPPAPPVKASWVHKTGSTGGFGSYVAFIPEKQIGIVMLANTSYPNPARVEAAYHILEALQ
Method: as §1, §2
Using the methodology described above, examples of the current invention were evaluated for their ability to inhibit β-lactamase enzymes from all four Ambler classifications (A through D).

OXA-1 β-lactamase = target: T5, OXA-1 β-lactamase (Escherichia coli, UniProt P13661); assay: β-lactamase enzyme inhibition, OXA-1; type: biochemical; settings: Nitrocefin 100 μM, 486 nm; 15 min at 37° C. preincubation; read-out: IC50 OXA-1 (Class D)
T5 construct: made in house; host or cells: E. coli BL21(DE3)
T5 sequence (P13661 26-276): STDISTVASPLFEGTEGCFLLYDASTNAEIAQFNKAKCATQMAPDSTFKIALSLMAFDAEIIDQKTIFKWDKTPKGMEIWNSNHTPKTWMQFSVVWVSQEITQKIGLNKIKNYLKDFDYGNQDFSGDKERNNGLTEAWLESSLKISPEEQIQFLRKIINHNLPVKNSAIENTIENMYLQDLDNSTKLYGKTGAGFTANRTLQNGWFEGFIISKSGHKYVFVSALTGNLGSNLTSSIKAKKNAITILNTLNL
Method: as §1, §2, §3

[2] = tested on: E. coli ESBL4 expressing CTX-M-15; assay: broth microdilution MIC, E. coli CTX-M-15; type: cell-based; settings: Fixed CAZ (ceftazidime) 4 μg/mL
Description: (§4) To determine the ability of test compounds to potentiate the inhibition of the growth of bacterial strains that produce beta-lactamase enzymes, classic cell based broth microdilution MIC assays were employed. Six bacteria strains producing beta-lactamase enzymes were used: E. coli expressing the Class A Extended Spectrum Beta-Lactamase (ESBL) CTX-M-15, E. cloacae expressing the Class C P99, K. pneumoniae expressing the Class A carbapenemase KPC-3, P. aeruginosa expressing the Class B carbapenemase VIM-2, K pneumoniae expressing the class A carbapenemase KPC-2 and the class B carbapenemase VIM-4, and S. aureus producing the Class A penicillinase PC-1. The assay was conducted in Cation Adjusted Mueller Hinton Broth (CAMHB, BD #212322, BD Diagnostic Systems, Sparks, Md.). Bacteria strains were grown for 3-5 hours in CAMBH broth. Test compounds were added to a microtiter plate in 2-fold serial dilutions in CAMHB in a final concentration range of 32 μg/mL to 0.25 μg/ml. An overlay of CAMHB containing a Beta-lactam was added to the compounds at a final static concentration of 4 μg/ml. […] In addition to the titration of test compounds the MICs of a panel of control beta-lactams is also tested to ensure the strains are behaving consistently from test to test. Once the test compound and antibiotics are added the plates can be inoculated according to CLSI broth microdilution method. After inoculation the plates are incubated for 16-20 hours at 37° C., then the Minimal Inhibitory Concentration (MIC) of the test compound is determined visually.
(§5) Using the methodology described above, examples of the current invention were evaluated for their ability to inhibit the growth of β-lactamase-producing bacteria in the presence of a β-lactam antibiotic.
(§6) Representative results are shown in Table 4 where A represents an MIC of the fixed β-lactam antibiotic in the presence of >32 µg/mL of a β-lactamase inhibitor of exemplary compounds, B represents the MIC in the presence of between 8 and 32 µg/mL of a β-lactamase inhibitor of exemplary compounds, and C represents the MIC in the presence of ≤4 µg/mL of a β-lactamase inhibitor of exemplary compounds. NT=Not Tested.

[3] = tested on: E. cloacae 144200 expressing Class C P99 AmpC; assay: broth microdilution MIC, E. cloacae P99; type: cell-based; settings: Fixed CAZ (ceftazidime) 4 μg/mL
Description: as §4, §5, §6

[4] = tested on: K. pneumoniae 156319 expressing KPC-3; assay: broth microdilution MIC, K. pneumoniae KPC-3; type: cell-based; settings: Fixed Mero (meropenem) 4 μg/mL
Description: as §4, §5, §6

[5] = tested on: K. pneumoniae A-1797 expressing KPC-2 and VIM-4; assay: broth microdilution MIC, K. pneumoniae KPC-2 and VIM-4; type: cell-based; settings: Fixed Mero (meropenem) 4 μg/mL
Description: as §4, §5, §6

T1 sequence (P0A3M1 22-286): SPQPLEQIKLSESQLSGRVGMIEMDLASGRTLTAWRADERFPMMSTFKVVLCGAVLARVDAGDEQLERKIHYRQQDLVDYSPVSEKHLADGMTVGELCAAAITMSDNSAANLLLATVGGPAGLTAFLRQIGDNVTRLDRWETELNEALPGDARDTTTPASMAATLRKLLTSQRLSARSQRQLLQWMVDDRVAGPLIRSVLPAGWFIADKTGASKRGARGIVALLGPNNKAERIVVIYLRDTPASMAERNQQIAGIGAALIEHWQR

CC(C)(C#N)CC(=O)N[C@H]1Cc2cccc(C(=O)O)c2OB1O [Example 43, (R)-3-(3-Cyano-3,3-dimethyl-propionylamino)-2-hydroxy-3,4-dihydro-2H-benzo[e][1,2]oxaborinine-8-carboxylic acid]
IC50 (SHV-5 β-lactamase): 0.1 to 1 µM
IC50 (KPC-2 β-lactamase): < 0.1 µM
IC50 [1]: 0.1 to 1 µM
IC50 (p99 AmpC β-lactamase): 0.1 to 1 µM
IC50 (OXA-1 β-lactamase): < 0.1 µM
MIC of exemplary compounds in presence of fixed β-lactams, E. coli ESBL4 CTX-M-15 [2]: C (C represents the MIC in the presence of ≤4 g/mL of a β-lactamase inhibitor)
MIC of exemplary compounds in presence of fixed β-lactams, E. cl. 144200 p99 AmpC [3]: C (C represents the MIC in the presence of ≤4 g/mL of a β-lactamase inhibitor)
MIC of exemplary compounds in presence of fixed β-lactams, K.P. 156319 KPC-3 [4]: C (C represents the MIC in the presence of ≤4 g/mL of a β-lactamase inhibitor)
MIC of exemplary compounds in presence of fixed β-lactams, K.P. A-1797 KPC-2 VIM-4 [5]: B (B represents the MIC in the presence of between 8 and 32 g/mL of a β-lactamase inhibitor)

CS(=O)(=O)NCCC(=O)N[C@H]1Cc2ccc(F)c(C(=O)O)c2OB1O [Example 48, (R)-7-Fluoro-2-hydroxy-3-(3-methanesulfonylamino-propionylamino)-3,4-dihydro-2H-benzo[e][1,2]oxaborinine-8-carboxylic acid]
IC50 (SHV-5 β-lactamase): < 0.1 µM
IC50 (KPC-2 β-lactamase): < 0.1 µM
IC50 [1]: 0.1 to 1 µM
IC50 (p99 AmpC β-lactamase): < 0.1 µM
IC50 (OXA-1 β-lactamase): < 0.1 µM
MIC of exemplary compounds in presence of fixed β-lactams, E. coli ESBL4 CTX-M-15 [2]: C (C represents the MIC in the presence of ≤4 g/mL of a β-lactamase inhibitor)
MIC of exemplary compounds in presence of fixed β-lactams, E. cl. 144200 p99 AmpC [3]: C (C represents the MIC in the presence of ≤4 g/mL of a β-lactamase inhibitor)
MIC of exemplary compounds in presence of fixed β-lactams, K.P. 156319 KPC-3 [4]: C (C represents the MIC in the presence of ≤4 g/mL of a β-lactamase inhibitor)
MIC of exemplary compounds in presence of fixed β-lactams, K.P. A-1797 KPC-2 VIM-4 [5]: B (B represents the MIC in the presence of between 8 and 32 g/mL of a β-lactamase inhibitor)

CC(C)(C)C(=O)CCC(=O)N[C@H]1Cc2cccc(C(=O)O)c2OB1O [Example 40, (R)-3-(5,5-Dimethyl-4-oxo-hexanoylamino)-2-hydroxy-3,4-dihydro-2H-benzo[e][1,2]oxaborinine-8-carboxylic acid]
IC50 (SHV-5 β-lactamase): < 0.1 µM
IC50 (KPC-2 β-lactamase): < 0.1 µM
IC50 [1]: 1 to 10 µM
IC50 (p99 AmpC β-lactamase): < 0.1 µM
IC50 (OXA-1 β-lactamase): < 0.1 µM
MIC of exemplary compounds in presence of fixed β-lactams, E. coli ESBL4 CTX-M-15 [2]: C (C represents the MIC in the presence of ≤4 g/mL of a β-lactamase inhibitor)
MIC of exemplary compounds in presence of fixed β-lactams, E. cl. 144200 p99 AmpC [3]: C (C represents the MIC in the presence of ≤4 g/mL of a β-lactamase inhibitor)
MIC of exemplary compounds in presence of fixed β-lactams, K.P. 156319 KPC-3 [4]: B (B represents the MIC in the presence of between 8 and 32 g/mL of a β-lactamase inhibitor)
MIC of exemplary compounds in presence of fixed β-lactams, K.P. A-1797 KPC-2 VIM-4 [5]: B (B represents the MIC in the presence of between 8 and 32 g/mL of a β-lactamase inhibitor)
